We go through seven compounds from patent US7270767B1, “Environmentally friendly de-icer and anti-icer compositions” (priority 1999, dated 2007).

One data set concerns D. Magnia. The experiment in a line: Acute aquatic toxicity, 48 hr LC50. The class given is in vivo, daphnia magna. From the text:
The present invention provides for deicing and anti-icing compositions that are environmentally advantaged.
As aforesaid, there are environmental issues associated with deicers and anti-icers, mostly as a result of the type of FPD used. Freezing point depressants are typically toxic to mammals. Ethylene glycol, in particular, is toxic to mammals (see rat LD50 data, Table 3). LC50, refers to Lethal Concentration, 50%, which is the concentration of a substance at which 50% of the population of test organisms die. Ethylene glycol has also been listed by the EPA as a hazardous air pollutant (HAP).
Another aspect of concern is the toxicity of FPDs on aquatic life and environment. […] (see Table 4, FPD aquatic toxicity data).

Another data set relates to Rat. As to conditions: cited from earlier work.
A short description of a further data set: Surface tension. It is filed as physicochemical. From the text: Surfactants by their very nature can have toxic effects on aquatic organisms. They can coat surfaces or membranes required for the organism's oxygen exchange with the environment. Thus, it is advantageous for surfactants to degrade rapidly in the environment once their useful purpose has been served. Preferred surfactants for use in the present formulations have low aquatic toxicity (Table 4) and are biodegradable (see FIG. 2). Preferably they are soluble or dispersible in water, so that they form homogenous solutions or mixtures with the FPD/water mixtures in the fluid. Also it is preferred that the surfactant reduces the surface tension of the fluid below 35 dynes/cm (see surface tension, Table 6).

Like-named read-outs stand apart in the source and are kept apart here.

Turning to `CC(O)CO` (centres unmarked) [Propylene glycol, reference compound], the “Acute tox. to D. Magnia, ppm (48 hr LC50)” value (from here on “Acute tox. to D. Magnia, ppm”) in the data set with D. Magnia was 55,000 ppm.
On the same count and under the same terms, then PEG-20 sorbitan oleate, with 46,000 ppm.
Turning to `CC(O)CCO` (centres unmarked) [1,3 Butanediol, reference compound], the “Rat Acute Oral Toxicity (LD50, g/kg)” value in the data set on Rat (oral, acute) is 18.6 g/kg.
As to `O` [Water], the “Surface Tension (dynes/cm)” value in the data set “Surface tension” was determined as 75 dynes/cm.
Turning to `OCCO` [Ethylene glycol, reference compound], the “Acute tox. to D. Magnia, ppm” value with D. Magnia was 77,000 ppm.
Regarding `OCCOCCOCCO` [Triethylene glycol], in the data set with Rat (in vivo, po), the “Rat Acute Oral Toxicity (LD50, g/kg)” value is 17 g/kg. Besides, the “Acute tox. to D. Magnia, ppm” value in the data set on D. Magnia was 66,000 ppm.
Take PEG-12 oleate: the “Acute tox. to D. Magnia, ppm” value in the data set on D. Magnia is given as 13,000 ppm.
